From patent US20150302167A1, “SYSTEM AND METHOD FOR DEVELOPMENT OF THERAPEUTIC SOLUTIONS” (CELLWORKS RESEARCH INDIA PRIVATE LIMITED, priority 2012, published 2015)

Legend:
[1] = Published clinical trial data of RA drugs: ACR20/ACR50/ACR70 response, drug vs placebo; format: in vivo, human; details: for ACR20 Diff. / ACR50 Diff. / ACR70 Diff.: Type: Diff. (drug minus placebo), * significant difference > 15%; for Highest Significant Clinical Disease Remission Score: highest ACR level with significant difference > 15% over placebo
Text: In another embodiment, American College of Rheumatoid (ACR) scoring system and DAS28 scoring system are used to determine the extent of improvement in the RA disease symptoms on treatment with a drug.
In another embodiment, the ACR scoring system involves three main scores: ACR20 score pertaining to 20% improvement in the disease, ACR50 score pertaining to 50% improvement in the disease and ACR70 score pertaining to 70% improvement in the disease. Clinically, the calculation of the ACR score is dependent on inputs from a patient Health Assessment Questionnaire (HAQ) and analysis of the percentage improvement in the RA disease phenotypes. […]

[2] = Type: Drug; published clinical trial data; cited from earlier work

CN(Cc1cnc2nc(N)nc(N)c2n1)c1ccc(C(=O)N[C@@H](CCC(=O)O)C(=O)O)cc1 [METHOTREXATE]
ACR20 Diff. [1]: 20% | ACR50 Diff. [1]: 15* % | ACR70 Diff. [1]: 5% | Highest Significant Clinical Disease Remission Score [1]: ACR50 (ACR50 score pertaining to 50% improvement in the disease) | ACR20 [2]: 46% | ACR50 [2]: 23% | ACR70 [2]: 9%

C[C@@H]1CCN(C(=O)CC#N)C[C@@H]1N(C)c1ncnc2[nH]ccc12 [TOFACITINIB]
ACR20 Diff. [1]: 66.5% | ACR50 Diff. [1]: 57.7% | ACR70 Diff. [1]: 20* % | Highest Significant Clinical Disease Remission Score [1]: ACR70 (ACR70 score pertaining to 70% improvement in the disease)

ANAKINRA
ACR20 Diff. [1]: 16* % | ACR50 Diff. [1]: 9% | ACR70 Diff. [1]: 4% | Highest Significant Clinical Disease Remission Score [1]: ACR20 (ACR20 score pertaining to 20% improvement in the disease) | ACR20 [2]: 38% | ACR50 [2]: 17% | ACR70 [2]: 6%

DENOSUMAB
ACR20 Diff. [1]: <0% | ACR50 Diff. [1]: <0% | ACR70 Diff. [1]: <0% | Highest Significant Clinical Disease Remission Score [1]: Non | ACR20 [2]: 23% | ACR50 [2]: 9% | ACR70 [2]: 1%

ETANERCEPT
ACR20 Diff. [1]: 15% | ACR50 Diff. [1]: 29% | ACR70 Diff. [1]: 28* % | Highest Significant Clinical Disease Remission Score [1]: ACR70 (ACR70 score pertaining to 70% improvement in the disease) | ACR20 [2]: 86% | ACR50 [2]: 71% | ACR70 [2]: 49%

RITUXIMAB
ACR20 Diff. [1]: 26% | ACR50 Diff. [1]: 21% | ACR70 Diff. [1]: 15* % | Highest Significant Clinical Disease Remission Score [1]: ACR70 (ACR70 score pertaining to 70% improvement in the disease) | ACR20 [2]: 54% | ACR50 [2]: 34% | ACR70 [2]: 20%

SECUKINUMAB
ACR20 Diff. [1]: 23* % | ACR50 Diff. [1]: 12% | ACR70 Diff. [1]: 0% | Highest Significant Clinical Disease Remission Score [1]: ACR20 (ACR20 score pertaining to 20% improvement in the disease) | ACR20 [2]: 54% | ACR50 [2]: 27% | ACR70 [2]: 12%

TOCILIZUMAB
ACR20 Diff. [1]: 33% | ACR50 Diff. [1]: 24% | ACR70 Diff. [1]: 21* % | Highest Significant Clinical Disease Remission Score [1]: ACR70 (ACR70 score pertaining to 70% improvement in the disease) | ACR20 [2]: 74% | ACR50 [2]: 53% | ACR70 [2]: 37%

B1: AMG714: RA drug with published clinical trial data, listed among various approved drugs (antibody, chains of the INN, looked up, V domains shown)
VH: EVQLVQSGAEVKKPGESLKISCKVSGYFFTTYWIGWVRQMPGKGLEYMGIIYPGDSDTRYSPSFQGQVTISADKSISTAYLQWSSLKASDTAMYYCARGGNWNCFDYWGQGTLVTVSS
VL: EIVLTQSPGTLSLSPGERATLSCRASQSVSSSYLAWYQQKPGQAPRLLIYGASRRATGIPDRFSGSGSGTDFTLTISRLEPEDFAVYYCQRYGSSHTFGQGTKLEIS
ACR20 Diff. [1]: 36* % | ACR50 Diff. [1]: 0% | ACR70 Diff. [1]: 0% | Highest Significant Clinical Disease Remission Score [1]: ACR20 (ACR20 score pertaining to 20% improvement in the disease) | ACR20 [2]: 62% | ACR50 [2]: 0% | ACR70 [2]: 0%
